Source: patent EP4752152A1, “STEROID COMPOUND, AND PREPARATION METHOD THEREFOR AND USE THEREOF” (Cholesgen (Shanghai) Co.Ltd., priority 2023, dated 2025)

System: SREBP pathway
Experiment: SREBP luciferase reporter gene system (SRE-luciferase assay)
Type: cell-based, human
Settings: Homo sapiens, Huh-7, 16 h, Huh-7/SRE-luc cells, sterol-deficient medium, 0.01-10 µM
Procedure: Huh-7/SRE-luc cells were incubated in sterol-deficient medium (5% lipoprotein deficient serum, 2 µM lovastatin, 10 µM mevalonic acid) with corresponding concentrations of compounds for 16 hours. The Huh-7/SRE-luc cells were human hepatoma cell line Huh-7 stably expressing LDLR promotor-luciferase and green fluorescent protein (GFP). These cells were obtained by transfecting Huh-7 with pLDLR-promotor-luciferase and pEGFP-N1 plasmids, followed by screening under G418 antibiotic selection pressure. The Huh-7 cells were purchased from ATCC, the pLDLR-promotor-luciferase plasmid was obtained by molecular cloning methods, and the pEGFP-N1 plasmid was purchased from Addgene.
After compound treatment, the cells were lysed with lysis buffer (E397A, Promega). After the addition of luciferase substrate (E1500, Promega), the activity of SRE-driven luciferase was measured using a BioTek Synergy HTX microplate reader (including but not limited to this type of instrument). The fluorescence intensity of green fluorescent protein (EGFP) was also measured using the above BioTek microplate reader (including but not limited to this type of instrument) and served as an internal control. The ratio of SRE-driven luciferase activity divided by the fluorescence intensity of green fluorescent protein was used as an indicator of SREBP pathway activity. The test data for each test compound were analyzed using Prism software (with the DMSO-treated group as the reference to calculate the compound inhibition rate, fitted using the Prism log(inhibitor) vs. response--Variable slope (four-parameter) model, calculation formula: Y = Bottom + (Top - Bottom)/(1 + 10^((LogIC50 - X) × HillSlope))), to obtain the IC50 parameters of the compounds.
Using the method described in 1.1, the inhibitory effect of the compounds of the present disclosure on the SREBP pathway was tested. The concentration gradient for each compound was designed as 0.01, 0.03, 0.1, 0.3, 1.0, 3.0, and 10 µM, with the vehicle DMSO as the control.

`COc1cc(F)cc(OC)c1C(O)CCC[C@@H](C)[C@H]1CC[C@H]2[C@H]3[C@H](CC[C@]12C)[C@@]1(C)CC[C@H](O)[C@H](O)[C@@H]1CC3(F)F` (single isomer, unassigned) [Compound 222, (1R,3aS,3bS,5aR,6R,7S,9aR,9bS,11aR)-4,4-difluoro-1-[(2R,6S)-6-(4-fluoro-2,6-dimethoxyphenyl)-6-hydroxyhexan-2-yl]-9a,11a-dimethylhexadecahydro-1H-cyclopenta[1,2-a]phenanthrene-6,7-diol or (1R,3aS,3bS,5aR,6R,7S,9aR,9bS,11aR)-4,4-difluoro-1-[(2R,6R)-6-(4-fluoro-2,6-dimethoxyphenyl)-6-hydroxyhexan-2-yl]-9a,11a-dimethylhexadecahydro-1H-cyclopenta[1,2-a]phenanthrene-6,7-diol] and `COc1cc(OC)c([C@H](O)CCC[C@@H](C)[C@H]2CC[C@H]3[C@H]4[C@H](CC[C@]23C)[C@@]2(C)CC[C@H](O)[C@H](O)[C@@H]2CC4(F)F)c(F)n1` (single isomer, unassigned) [Compound 235] are within 1.5-fold of each other in IC50: 0.137 µM for the first, 0.115 µM for the second.

First: COc1ncc(F)cc1[C@@H](O)CCC[C@@H](C)[C@H]1CC[C@H]2[C@H]3[C@H](CC[C@]12C)[C@@]1(C)CC[C@H](O)[C@H](O)[C@@H]1CC3(F)F (single isomer, unassigned) [Compound 228]
Second: COc1ncc(F)cc1[C@H](O)CCC[C@@H](C)[C@H]1CC[C@H]2[C@H]3[C@H](CC[C@]12C)[C@@]1(C)CC[C@H](O)[C@H](O)[C@@H]1CC3(F)F (single isomer, unassigned) [Compound 231]
The IC50 of the first is 23-fold higher: 1.42 µM for the first, 0.062 µM for the second. The second is the more potent here.

Compared with `COc1ccnc(F)c1[C@@H](O)CCC[C@@H](C)[C@H]1CC[C@H]2[C@H]3[C@H](CC[C@]12C)[C@@]1(C)CC[C@H](O)[C@H](O)[C@@H]1CC3(F)F` (single isomer, unassigned) [Compound 229], `COc1cc(F)c([C@@H](O)CCC[C@@H](C)[C@H]2CC[C@H]3[C@H]4[C@H](CC[C@]23C)[C@@]2(C)CC[C@H](O)[C@H](O)[C@@H]2CC4(F)F)c(F)n1` (single isomer, unassigned) [Compound 238] is 5.9-fold higher in IC50: 0.049 µM for the first, 0.289 µM for the second. The first is the more potent here.

`C[C@H](CCC[C@H](O)c1cccc2cnn(C)c12)[C@H]1CC[C@H]2C3=C(F)C[C@H]4[C@@H](O)[C@@H](O)CC[C@]4(C)[C@H]3CC[C@]12C` (single isomer, unassigned) [Compound 245] and `C[C@H](CCC[C@@H](O)c1cccc2cnn(C)c12)[C@H]1CC[C@H]2C3=C(F)C[C@H]4[C@@H](O)[C@@H](O)CC[C@]4(C)[C@H]3CC[C@]12C` (single isomer, unassigned) [Compound 246] are within 1.5-fold of each other in IC50: 0.159 µM for the first, 0.139 µM for the second.

Same assay, conditions: Huh-7/SRE-luc cells, sterol-deficient medium, 16 hours, 0.01-10 µM

First: COc1nc(C(O)CCC[C@@H](C)[C@H]2CC[C@H]3[C@H]4[C@H](CC[C@]23C)[C@@]2(C)CC[C@H](O)[C@H](O)[C@@H]2CC4(F)F)cs1 (single isomer, unassigned) [Compound 220, (1R,3aS,3bS,5aR,6R,7S,9aR,9bS,11aR)-4,4-difluoro-1-[(2R,6R)-6-hydroxy-6-(2-methoxy-1,3-thiazol-4-yl)hexan-2-yl]-9a,11a-dimethylhexadecahydro-1H-cyclopenta[1,2-a]phenanthrene-6,7-diol or (1R,3aS,3bS,5aR,6R,7S,9aR,9bS,11aR)-4,4-difluoro-1-[(2R,6S)-6-hydroxy-6-(2-methoxy-1,3-thiazol-4-yl)hexan-2-yl]-9a,11a-dimethylhexadecahydro-1H-cyclopenta[1,2-a]phenanthrene-6,7-diol]
Second: COc1ccc(C(O)CCC[C@@H](C)[C@H]2CC[C@H]3[C@H]4[C@H](CC[C@]23C)[C@@]2(C)CC[C@H](O)[C@H](O)[C@@H]2CC4(F)F)c(F)n1 (single isomer, unassigned) [Compound 242, (1R,3aS,3bS,5aR,6R,7S,9aR,9bS,11aR)-4,4-difluoro-1-[(2R,6S)-6-(2-fluoro-6-methoxypyridin-3-yl)-6-hydroxyhexan-2-yl]-9a,11a-dimethylhexadecahydro-1H-cyclopenta[1,2-a]phenanthrene-6,7-diol or (1R,3aS,3bS,5aR,6R,7S,9aR,9bS,11aR)-4,4-difluoro-1-[(2R,6R)-6-(2-fluoro-6-methoxypyridin-3-yl)-6-hydroxyhexan-2-yl]-9a,11a-dimethylhexadecahydro-1H-cyclopenta[1,2-a]phenanthrene-6,7-diol]
The IC50 of the first is 5.1-fold lower: 0.04 µM for the first, 0.205 µM for the second. The first is the more potent here.

First: COc1nc(C(O)CCC[C@@H](C)[C@H]2CC[C@H]3[C@H]4[C@H](CC[C@]23C)[C@@]2(C)CC[C@H](O)[C@H](O)[C@@H]2CC4(F)F)cs1 (single isomer, unassigned) [Compound 221, (1R,3aS,3bS,5aR,6R,7S,9aR,9bS,11aR)-4,4-difluoro-1-[(2R,6S)-6-hydroxy-6-(2-methoxy-1,3-thiazol-4-yl)hexan-2-yl]-9a,11a-dimethylhexadecahydro-1H-cyclopenta[1,2-a]phenanthrene-6,7-diol or (1R,3aS,3bS,5aR,6R,7S,9aR,9bS,11aR)-4,4-difluoro-1-[(2R,6R)-6-hydroxy-6-(2-methoxy-1,3-thiazol-4-yl)hexan-2-yl]-9a,11a-dimethylhexadecahydro-1H-cyclopenta[1,2-a]phenanthrene-6,7-diol]
Second: C[C@H](CCCC(O)c1ccc(F)nc1F)[C@H]1CC[C@H]2[C@H]3[C@H](CC[C@]12C)[C@@]1(C)CC[C@H](O)[C@H](O)[C@@H]1CC3(F)F (single isomer, unassigned) [Compound 226, (1R,3aS,3bS,5aR,6R,7S,9aR,9bS,11aR)-1-[(2R,6S)-6-(2,6-difluoropyridin-3-yl)-6-hydroxyhexan-2-yl]-4,4-difluoro-9a,11a-dimethylhexadecahydro-1H-cyclopenta[1,2-a]phenanthrene-6,7-diol or (1R,3aS,3bS,5aR,6R,7S,9aR,9bS,11aR)-1-[(2R,6R)-6-(2,6-difluoropyridin-3-yl)-6-hydroxyhexan-2-yl]-4,4-difluoro-9a,11a-dimethylhexadecahydro-1H-cyclopenta[1,2-a]phenanthrene-6,7-diol]
The IC50 of the first is 1.8-fold higher: 0.183 µM for the first, 0.1 µM for the second.

`COc1cc(F)cc(OC)c1C(O)CCC[C@@H](C)[C@H]1CC[C@H]2[C@H]3[C@H](CC[C@]12C)[C@@]1(C)CC[C@H](O)[C@H](O)[C@@H]1CC3(F)F` (single isomer, unassigned) [Compound 225, (1R,3aS,3bS,5aR,6R,7S,9aR,9bS,11aR)-4,4-difluoro-1-[(2R,6R)-6-(4-fluoro-2,6-dimethoxyphenyl)-6-hydroxyhexan-2-yl]-9a,11a-dimethylhexadecahydro-1H-cyclopenta[1,2-a]phenanthrene-6,7-diol or (1R,3aS,3bS,5aR,6R,7S,9aR,9bS,11aR)-4,4-difluoro-1-[(2R,6S)-6-(4-fluoro-2,6-dimethoxyphenyl)-6-hydroxyhexan-2-yl]-9a,11a-dimethylhexadecahydro-1H-cyclopenta[1,2-a]phenanthrene-6,7-diol] and `C[C@H](CCCC(O)c1cccc2cnn(C)c12)[C@H]1CC[C@H]2[C@H]3[C@H](CC[C@]12C)[C@@]1(C)CC[C@H](O)[C@H](O)[C@@H]1CC3(F)F` (single isomer, unassigned) [Compound 243, (1R,3aS,3bS,5aR,6R,7S,9aR,9bS,11aR)-4,4-difluoro-1-[(2R,6S)-6-hydroxy-6-(1-methylindazol-7-yl)hexan-2-yl]-9a,11a-dimethylhexadecahydro-1H-cyclopenta[1,2-a]phenanthrene-6,7-diol or (1R,3aS,3bS,5aR,6R,7S,9aR,9bS,11aR)-4,4-difluoro-1-[(2R,6R)-6-hydroxy-6-(1-methylindazol-7-yl)hexan-2-yl]-9a,11a-dimethylhexadecahydro-1H-cyclopenta[1,2-a]phenanthrene-6,7-diol] are within 1.5-fold of each other in IC50: 0.175 µM for the first, 0.134 µM for the second.
